Data as given in patent EP4772513A1, “PI3K-ALPHA INHIBITOR AND USE THEREOF” (TYK Medicines (Zhengzhou), Inc., priority 2023, dated 2025).

What was measured:
[1] = tested on: Human breast cancer cells SK-BR-3 (WT); assay: Cell proliferation inhibition assay (CTG), SK-BR-3 (WT); type: cell-based; conditions: SK-BR-3 (WT) cells, 3 days incubation, CTG readout
Experimental: (§1) Cell Proliferation Inhibition Assay
(§2) 1. Experimental Materials
(§3) II. Experimental Protocol
(§4) • a) Cell suspension was prepared; • b) The medium was removed from the culture flask; • c) The cells were rinsed once with PBS; • d) Trypsin was added for digestion, and the cells were centrifuged and collected; • e) The cells were resuspended in medium, counted and adjusted to an appropriate concentration; • f) 100 µL of cell suspension was added to each well of a 96-well plate. One plate was used for each cell line, which was incubated overnight in a 37 °C, 5% CO2 incubator.
(§5) 2. Treatment of Compounds
(§6) • a) Serial dilutions of the test compounds were prepared: The compound was prepared as a 10 mM stock solution. 18 µL of the stock solution was dissolved in 982 µL of the culture medium containing DMSO, followed by 4-fold serial dilutions in culture medium containing 0.5% DMSO to give 9 concentrations. The concentrations of the diluted compound were as follows: 180000 nM, 45000 nM, 11250 nM, 2812.5 nM, 703.13 nM, 175.78 nM, 43.95 nM, 10.99 nM, and 2.75 nM. • b) After thorough mixing, 20 µL of each compound solution was added to the cell plate containing 100 µL of cells per well. Each concentration was tested in triplicate. Final concentrations of the compound were as follows: 30000 nM, 7500 nM, 1875 nM, 468.75 nM, 117.188 nM, 29.30 nM, 7.32 nM, 1.83 nM, and 0.46 nM. • c) The cells were transferred into the incubator and incubated for 3 days.
(§7) The cell plate was removed, 25 µL of CTG reagent was added to each well of the 96-well plate, the mixture was shook on a plate shaker at room temperature for 10 minutes, and the plate was read.
(§8) The cell survival rate was calculated using the following formula (% Cell Survival): % Cell Survival = 100% × (OD_Sample−OD_LCave)/(OD_HC−OD_LCave) [formula] • OD_HC: Reading of the 0.1‰ DMSO control group • OD_Sample: Reading of cells treated with compound • OD_LCave: Reading of blank medium
(§9) Analyzed by Prism: Dose-response-Inhibition - Log (inhibitor) vs response (three parameters for the best fit).

[2] = tested on: Human breast cancer cells T47D (H1047R); assay: Cell proliferation inhibition assay (CTG), T47D (H1047R); type: cell-based; conditions: 3 days incubation, CTG readout
Experimental: as §1, §2, §3, §4, §5, §6, §7, §8, §9

CC(Nc1ccccc1C(=O)O)c1cc(F)cc2c(=O)n3c(nc12)CN(c1cccnc1)CC3 (single isomer, unassigned) [Compound C15]
IC50 ([1]; Homo sapiens, 72 h): > 5000 nM
IC50 ([2]; Homo sapiens, 72 h): 500 to 2000 nM

CC(Nc1ccccc1C(=O)O)c1cc(F)cc2c(=O)c3c(oc12)CN(S(=O)(=O)C(C)C)CC3 (single isomer, unassigned) [Compound C39]
IC50 ([1]; Homo sapiens, 72 h): > 5000 nM
IC50 ([2]; Homo sapiens, 72 h): ≤ 500 nM

CC(Nc1ccccc1C(=O)O)c1cc(F)cc2c(=O)c3c(oc12)CN(C(=O)N1CCCC1)CC3 (single isomer, unassigned) [Compound C41]
IC50 ([1]; Homo sapiens, 72 h): > 5000 nM
IC50 ([2]; Homo sapiens, 72 h): ≤ 500 nM

CC(Nc1ccccc1C(=O)O)c1cc(F)cc2c(=O)c3c(oc12)CN(C(=O)N1CCC1)CC3 (single isomer, unassigned) [Compound C47]
IC50 ([1]; Homo sapiens, 72 h): > 5000 nM
IC50 ([2]; Homo sapiens, 72 h): ≤ 500 nM

Cc1cc(C(C)Nc2ccc(Cl)nc2C(=O)O)c2oc3c(c(=O)c2c1)CCN(S(=O)(=O)C(C)C)C3 (single isomer, unassigned) [Compound C49]
IC50 ([1]; Homo sapiens, 72 h): > 5000 nM
IC50 ([2]; Homo sapiens, 72 h): ≤ 500 nM

Cc1cc(C(C)Nc2ccccc2C(=O)O)c2oc3c(c(=O)c2c1)CCN(C(=O)N1CCCC1)C3 (single isomer, unassigned) [Compound C50]
IC50 ([1]; Homo sapiens, 72 h): > 5000 nM
IC50 ([2]; Homo sapiens, 72 h): ≤ 500 nM

Cc1cc(C(C)Nc2ccccc2C(=O)O)c2oc3c(c(=O)c2c1)CCN(S(=O)(=O)N1CCCC1)C3 (single isomer, unassigned) [Compound C56]
IC50 ([1]; Homo sapiens, 72 h): > 5000 nM
IC50 ([2]; Homo sapiens, 72 h): ≤ 500 nM

Cc1cc(C(C)Nc2ccccc2C(=O)O)c2oc3c(c(=O)c2c1)CCN(S(=O)(=O)C1CC1)C3 (single isomer, unassigned) [Compound C59]
IC50 ([1]; Homo sapiens, 72 h): > 5000 nM
IC50 ([2]; Homo sapiens, 72 h): ≤ 500 nM

Cc1cc(C(C)Nc2ccccc2C(=O)O)c2oc3c(c(=O)c2c1)CCN(S(=O)(=O)c1ccccc1)C3 (single isomer, unassigned) [Compound C61]
IC50 ([1]; Homo sapiens, 72 h): > 5000 nM
IC50 ([2]; Homo sapiens, 72 h): ≤ 500 nM

CC(Nc1ccccc1C(=O)O)c1cc(F)cc2c(=O)c3c(oc12)C(C)N(S(=O)(=O)C(C)C)CC3 (single isomer, unassigned) [Compound C163]
IC50 ([1]; Homo sapiens, 72 h): > 5000 nM
IC50 ([2]; Homo sapiens, 72 h): ≤ 500 nM

Cc1cc(C(C)Nc2ccc(Cl)nc2C(=O)O)c2nc3c(c(=O)n2c1)CCN(S(=O)(=O)c1c(C)cnn1C)C3 (single isomer, unassigned) [Compound C184]
IC50 ([1]; Homo sapiens, 72 h): > 5000 nM
IC50 ([2]; Homo sapiens, 72 h): ≤ 500 nM

Cc1cc(C(C)Nc2ccccc2C(=O)O)c2nc3c(c(=O)n2c1)CCN(S(=O)(=O)C(C)C)C3 (single isomer, unassigned) [Compound C196]
IC50 ([1]; Homo sapiens, 72 h): > 5000 nM
IC50 ([2]; Homo sapiens, 72 h): ≤ 500 nM

Cc1cc(C(C)Nc2ccccc2C(=O)O)c2oc3c(c(=O)c2c1)CCN(C(c1ccccc1)C(F)(F)F)C3 (single isomer, unassigned) [Compound C207]
IC50 ([1]; Homo sapiens, 72 h): > 5000 nM
IC50 ([2]; Homo sapiens, 72 h): ≤ 500 nM

Cc1cc(C(C)Nc2ccccc2C(=O)O)c2oc3c(c(=O)c2c1)CCN(C(c1ccccc1)C(F)(F)F)C3 (single isomer, unassigned) [Compound C209]
IC50 [1]: > 5000 nM
IC50 [2]: ≤ 500 nM

C[C@@H](Nc1ccc(Cl)nc1C(=O)O)c1cc(Cl)cc2c(=O)c3c(oc12)CN(S(=O)(=O)N1CCOCC1)CC3 [Compound C66]
IC50 ([1]; Homo sapiens, 72 h): > 5000 nM
IC50 ([2]; Homo sapiens, 72 h): ≤ 500 nM

C[C@@H](Nc1ccc(Cl)nc1C(=O)O)c1cc(F)cc2c(=O)c3c(oc12)CN(S(=O)(=O)N1CCOCC1)CC3 [Compound C67]
IC50 ([1]; Homo sapiens, 72 h): > 5000 nM
IC50 ([2]; Homo sapiens, 72 h): ≤ 500 nM

C[C@@H](Nc1ccc(Cl)nc1C(=O)O)c1cc(F)cc2c(=O)c3c(oc12)CN(S(=O)(=O)C1CC1)CC3 [Compound C68]
IC50 ([1]; Homo sapiens, 72 h): > 5000 nM
IC50 ([2]; Homo sapiens, 72 h): 500 to 2000 nM

CC(C)S(=O)(=O)N1CCc2c(oc3c([C@@H](C)Nc4ccc(Cl)nc4C(=O)O)cc(F)cc3c2=O)C1 [Compound C72]
IC50 ([1]; Homo sapiens, 72 h): > 5000 nM
IC50 ([2]; Homo sapiens, 72 h): 500 to 2000 nM

C[C@@H](Nc1ccc(Cl)nc1C(=O)O)c1cc(F)cc2c(=O)c3c(oc12)CN(S(=O)(=O)N1CCC1)CC3 [Compound C73]
IC50 ([1]; Homo sapiens, 72 h): > 5000 nM
IC50 ([2]; Homo sapiens, 72 h): 500 to 2000 nM

C[C@@H](Nc1ccc(Cl)nc1C(=O)O)c1cc(F)cc2c(=O)c3c(oc12)CN(S(=O)(=O)c1ccccc1)CC3 [Compound C77]
IC50 ([1]; Homo sapiens, 72 h): > 5000 nM
IC50 ([2]; Homo sapiens, 72 h): ≤ 500 nM
